Measurements taken from patent publication US20060069132A1, “Azolecarboxamide herbicides” (priority 2004, published 2006).

Experiments:
[1] = test system: common (oilseed) sunflower; assay: Test C pre-/postemergence herbicide test; type: in vivo, Helianthus annuus
Summary of the method: (§1)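 Visual injury scores run from 0 (no effect) to 100 (complete control), assessed relative to untreated controls 12 to 14 days after treatment in the greenhouse. Chemicals were formulated in a non-phytotoxic solvent mixture with surfactant and applied to soil after planting or to emerged plants at the 1- to 4-leaf stage.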

blackgrass = assay: Test B postemergence herbicide test; type: in vivo, Alopecurus myosuroides
Summary of the method: (§2)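 Read-out: visual comparison with controls, scored 0 to 100, where 100 means complete control and 0 no effect. Formulated chemicals were applied postemergence to plants 2–18 cm tall (1- to 4-leaf), or to flooded-paddy plants at the 2-leaf stage, then held 13 to 15 days under glass.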

corn = assay: Test C pre-/postemergence herbicide test; type: in vivo, Zea mays
Summary of the method: as §1

cocklebur = assay: Test C pre-/postemergence herbicide test; type: in vivo, Xanthium strumarium
Summary of the method: as §1

ducksalad [2] = assay: Test B flooded paddy test; type: in vivo, Heteranthera limosa; conditions: 1000 g ai/ha, scale 0 to 100 (0 no effect, 100 complete control)
Summary of the method: as §2

woolly cupgrass = assay: Test C pre-/postemergence herbicide test; type: in vivo, Eriochloa villosa
Summary of the method: as §1

ducksalad [3] = assay: Test C flooded paddy test; type: in vivo, Heteranthera limosa
[4] = 62 g ai/ha, preemergence, scale 0 to 100
[5] = 250 g ai/ha, scale 0-100, preemergence
[6] = 500 g ai/ha, scale 0 to 100 (0 no effect, 100 complete control), visual, 12 to 14 days, preemergence
[7] = 125 g ai/ha, visual rating, scale 0 (no effect) to 100 (complete control), postemergence
[8] = postemergence, 500 g ai/ha, scale 0 to 100, 0 is no effect, 100 is complete control
[9] = 125 g ai/ha, scale 0 (no effect) to 100 (complete control), visual, 12 to 14 days, preemergence
[10] = Preemergence, 500 g ai/ha, scale 0 to 100, 0 no effect, 100 complete control
[11] = 125 g ai/ha, scale 0 to 100 (0 no effect, 100 complete control)
[12] = 250 g ai/ha, scale of 0 to 100, 0 is no effect, 100 is complete control
[13] = 500 g ai/ha, visual rating after 12 to 14 days, scale 0 to 100 (0 no effect, 100 complete control)
[14] = 250 g ai/ha, scale 0 to 100 (0 no effect, 100 complete control), visual, 12 to 14 days, preemergence
[15] = Postemergence, 500 g ai/ha, scale 0 to 100
[16] = Postemergence, 250 g ai/ha, scale 0 to 100, 0 no effect, 100 complete control
[17] = postemergence, 125 g ai/ha, scale 0 to 100
[18] = postemergence, 62 g ai/ha, scale 0 to 100

CCN(C)C(=O)c1ccc(F)c(NC(=O)C2CC(C(C)(C)C)=NN2CC)c1 (racemic) [Compound 307]
Plant response rating, Sunflower [1, 4]: 0
Plant response rating, Sunflower [1, 5]: 60
Plant response rating, Sunflower [1, 6]: 60
Blackgrass plant response rating (blackgrass; [7]): 10
Blackgrass plant response rating (blackgrass; [8]): 30
Plant response rating, Corn (corn; [4]): 0
Plant response rating, Corn (corn; [9]): 20
Plant response rating, Corn (corn; [5]): 30
Plant response rating, Corn (corn; [6]): 45
Plant response rating, Cocklebur (cocklebur; [4]): 0
Plant response rating, Cocklebur (cocklebur; [9]): 30
Plant response rating, Cocklebur (cocklebur; [5]): 35
Cocklebur plant response rating (cocklebur; [10]): 75
Ducksalad plant response rating (ducksalad [2]): 80
Plant response rating, Cupgrass, Woolly (woolly cupgrass; [4]): 5
Plant response rating, Cupgrass, Woolly (woolly cupgrass; [9]): 40
Plant response rating, Cupgrass, Woolly (woolly cupgrass; [5]): 70
Plant response rating, Cupgrass, Woolly (woolly cupgrass; [6]): 85
Ducksalad plant response rating (ducksalad [3]; 62 g ai/ha, scale 0 to 100): 60
Ducksalad plant response rating (ducksalad [3]; [11]): 70
Ducksalad plant response rating (ducksalad [3]; [12]): 90
Plant response rating, Ducksalad (ducksalad [3]; [13]): 90

CCn1nc2c(c1C(=O)Nc1cc(C(=O)N(C)C)ccc1F)CCC2(C)C [Compound 352, N-[5-[(dimethylamino)carbonyl]-2-fluorophenyl]-2-ethyl-2,4,5,6-tetrahydro-6,6-dimethyl-3-cyclopentapyrazolecarboxamide]
Plant response rating (0 = no effect, 100 = complete control), Sunflower ([1]; 125 g ai/ha, preemergence): 0
pest or weed control at 62 g/ha ([1]; Helianthus annuus, pre-emergence, 62 g ai/ha, preemergence, scale 0 to 100, read-out: Plant response rating, Sunflower): 0%
pest or weed control at 250 g/ha ([1]; Helianthus annuus, pre-emergence, 250 g ai/ha, scale 0-100, read-out: Plant response rating, Sunflower): 0%
pest or weed control at 500 g/ha ([1]; Helianthus annuus, pre-emergence, 500 g ai/ha, scale 0 to 100 (0 no effect, 100 complete control), visual, 12 to 14 days, read-out: Plant response rating, Sunflower): 0%
pest or weed control at 125 g/ha (blackgrass; Alopecurus myosuroides, post-emergence, 336 h, 125 g ai/ha, visual rating, scale 0 (no effect) to 100 (complete control), read-out: Blackgrass plant response rating): 10%
pest or weed control at 500 g/ha (blackgrass; Alopecurus myosuroides, post-emergence, 336 h, postemergence, 500 g ai/ha, scale 0 to 100, 0 is no effect, 100 is complete control, read-out: Blackgrass plant response rating): 30%
Plant response rating (0 = no effect, 100 = complete control), Corn (corn; 125 g ai/ha, preemergence): 15
Corn plant response rating (crop injury, 0 = no effect, 100 = complete kill) at 62 g/ha (corn; Zea mays, pre-emergence, 312 h, 62 g ai/ha, preemergence, scale 0 to 100): 0%
Corn plant response rating (crop injury, 0 = no effect, 100 = complete kill) at 250 g/ha (corn; Zea mays, pre-emergence, 312 h, 250 g ai/ha, scale 0-100): 30%
Corn plant response rating (crop injury, 0 = no effect, 100 = complete kill) at 500 g/ha (corn; Zea mays, pre-emergence, 312 h, 500 g ai/ha, scale 0 to 100 (0 no effect, 100 complete control), visual, 12 to 14 days): 50%
Plant response rating (0 = no effect, 100 = complete control), Cocklebur (cocklebur; 125 g ai/ha, preemergence): 0
pest or weed control at 62 g/ha (cocklebur; Xanthium strumarium, pre-emergence, 312 h, 62 g ai/ha, preemergence, scale 0 to 100, read-out: Plant response rating, Cocklebur): 0%
pest or weed control at 250 g/ha (cocklebur; Xanthium strumarium, pre-emergence, 312 h, 250 g ai/ha, scale 0-100, read-out: Plant response rating, Cocklebur): 0%
pest or weed control at 500 g/ha (cocklebur; Xanthium strumarium, pre-emergence, 312 h, 500 g ai/ha, scale 0 to 100 (0 no effect, 100 complete control), visual, 12 to 14 days, read-out: Plant response rating, Cocklebur): 30%
pest or weed control at 1000 g/ha (ducksalad [2]; Heteranthera limosa, 336 h, read-out: Ducksalad plant response rating): 90%
Plant response rating (0 = no effect, 100 = complete control), Cupgrass, Woolly (woolly cupgrass; 125 g ai/ha, preemergence): 50
pest or weed control at 62 g/ha (woolly cupgrass; Eriochloa villosa, pre-emergence, 312 h, 62 g ai/ha, preemergence, scale 0 to 100, read-out: Plant response rating, Cupgrass, Woolly): 5%
pest or weed control at 250 g/ha (woolly cupgrass; Eriochloa villosa, pre-emergence, 312 h, 250 g ai/ha, scale 0-100, read-out: Plant response rating, Cupgrass, Woolly): 60%
pest or weed control at 500 g/ha (woolly cupgrass; Eriochloa villosa, pre-emergence, 312 h, 500 g ai/ha, scale 0 to 100 (0 no effect, 100 complete control), visual, 12 to 14 days, read-out: Plant response rating, Cupgrass, Woolly): 85%
pest or weed control at 62 g/ha (ducksalad [3]; Heteranthera limosa, 62 g ai/ha, scale 0 to 100, read-out: Ducksalad plant response rating): 20%
pest or weed control at 125 g/ha (ducksalad [3]; Heteranthera limosa, 125 g ai/ha, scale 0 to 100 (0 no effect, 100 complete control), read-out: Ducksalad plant response rating): 65%
pest or weed control at 250 g/ha (ducksalad [3]; Heteranthera limosa, 250 g ai/ha, scale of 0 to 100, 0 is no effect, 100 is complete control, read-out: Ducksalad plant response rating): 85%
pest or weed control at 500 g/ha (ducksalad [3]; Heteranthera limosa, 500 g ai/ha, visual rating after 12 to 14 days, scale 0 to 100 (0 no effect, 100 complete control), read-out: Plant response rating, Ducksalad): 95%

CCn1nc(C(C)(C)C)cc1C(=O)Nc1cc(C(=S)N(C)C)ccc1F [Compound 294]
Plant response rating, Sunflower [1, 4]: 30
Plant response rating, Sunflower [1, 5]: 100
Plant response rating, Sunflower [1, 6]: 100
Blackgrass plant response rating (blackgrass; [7]): 20
Blackgrass plant response rating (blackgrass; [8]): 60
Plant response rating, Corn (corn; [4]): 55
Plant response rating, Corn (corn; [9]): 60
Plant response rating, Corn (corn; [5]): 60
Plant response rating, Corn (corn; [6]): 80
Plant response rating, Cocklebur (cocklebur; [4]): 30
Plant response rating, Cocklebur (cocklebur; [9]): 40
Plant response rating, Cocklebur (cocklebur; [5]): 80
Cocklebur plant response rating (cocklebur; [10]): 85
Ducksalad plant response rating (ducksalad [2]): 90
Plant response rating, Cupgrass, Woolly (woolly cupgrass; [4]): 55
Plant response rating, Cupgrass, Woolly (woolly cupgrass; [9]): 75
Plant response rating, Cupgrass, Woolly (woolly cupgrass; [5]): 80
Plant response rating, Cupgrass, Woolly (woolly cupgrass; [6]): 85
Ducksalad plant response rating (ducksalad [3]; 62 g ai/ha, scale 0 to 100): 90
Ducksalad plant response rating (ducksalad [3]; [11]): 95
Ducksalad plant response rating (ducksalad [3]; [12]): 95
Plant response rating, Ducksalad (ducksalad [3]; [13]): 95

CCn1nc(C(C)(C)C)cc1C(=O)Nc1cccc(C(N)=O)n1 [Compound 162, 6-[[[3-(1,1-dimethylethyl)-1-ethyl-1H-pyrazol-5-yl]carbonyl]amino]-2-pyridinecarboxamide]
Plant response rating, Sunflower [1, 4]: 0
Plant response rating, Sunflower [1, 9]: 15
Sunflower plant response rating [1, 10]: 90
Blackgrass plant response rating (blackgrass; postemergence, 125 g ai/ha, visual rating, scale 0 (no effect) to 100 (complete control)): 20
Blackgrass plant response rating (blackgrass; postemergence, 500 g ai/ha, visual rating, scale 0 (no effect) to 100 (complete control)): 50
Plant response rating, Corn (corn; [4]): 20
Plant response rating, Corn (corn; [9]): 70
Plant response rating, Corn (corn; [14]): 75
Corn plant response rating (corn; [10]): 75
Plant response rating, Cocklebur (cocklebur; [14]): 65
Cocklebur plant response rating (cocklebur; [10]): 75
Ducksalad plant response rating (ducksalad [2]; visual rating, 13 to 15 days): 80
Plant response rating, Cupgrass, Woolly (woolly cupgrass; [4]): 0
Plant response rating, Cupgrass, Woolly (woolly cupgrass; [9]): 0
Plant response rating, Cupgrass, Woolly (woolly cupgrass; [14]): 0
Cupgrass, Woolly plant response rating (woolly cupgrass; [10]): 100
Ducksalad plant response rating (ducksalad [3]; 62 g ai/ha, scale 0 to 100 (0 no effect, 100 complete control)): 70
Ducksalad plant response rating (ducksalad [3]; [11]): 85
Ducksalad plant response rating (ducksalad [3]; [12]): 95
Plant response rating, Ducksalad (ducksalad [3]; [13]): 100

CCn1nc(C(C)(C)C)cc1C(=O)Nc1cccc(OC(F)F)c1 [Compound 332]
Plant response rating, Sunflower [1, 4]: 0
Plant response rating, Sunflower [1, 5]: 0
Plant response rating, Sunflower [1, 6]: 0
Blackgrass plant response rating (blackgrass; [7]): 40
Blackgrass plant response rating (blackgrass; [8]): 80
Plant response rating, Corn (corn; [4]): 0
Plant response rating, Corn (corn; [9]): 0
Plant response rating, Corn (corn; [5]): 0
Plant response rating, Corn (corn; [6]): 5
Corn plant response rating (corn; [15]): 5
Plant response rating, Corn (corn; [16]): 5
Plant response rating, Corn (corn; [17]): 0
Plant response rating, Corn (corn; [18]): 0
Plant response rating, Cocklebur (cocklebur; [4]): 0
Plant response rating, Cocklebur (cocklebur; [9]): 0
Plant response rating, Cocklebur (cocklebur; [5]): 0
Cocklebur plant response rating (cocklebur; [15]): 15
Plant response rating, Cocklebur (cocklebur; [16]): 10
Cocklebur plant response rating (cocklebur; [10]): 0
Plant response rating, Cocklebur (cocklebur; [17]): 10
Plant response rating, Cocklebur (cocklebur; [18]): 5
Ducksalad plant response rating (ducksalad [2]): 90
Plant response rating, Cupgrass, Woolly (woolly cupgrass; [4]): 0
Plant response rating, Cupgrass, Woolly (woolly cupgrass; [9]): 0
Plant response rating, Cupgrass, Woolly (woolly cupgrass; [5]): 5
Plant response rating, Cupgrass, Woolly (woolly cupgrass; [6]): 10
Cupgrass, Woolly plant response rating (woolly cupgrass; [15]): 10
Plant response rating, Cupgrass, Woolly (woolly cupgrass; [16]): 10
Plant response rating, Cupgrass, Woolly (woolly cupgrass; [17]): 5
Plant response rating, Cupgrass, Woolly (woolly cupgrass; [18]): 5
Ducksalad plant response rating (ducksalad [3]; 62 g ai/ha, scale 0 to 100): 20
Ducksalad plant response rating (ducksalad [3]; [11]): 90
Ducksalad plant response rating (ducksalad [3]; [12]): 95
Plant response rating, Ducksalad (ducksalad [3]; [13]): 95
